Experimental data from the SangsterLogP compilation.

Assay: method code SF-HPLC, from DOI: 10.1021/jm00047a008, PMID: 7932579

logD (pH 9.0) | logD (pH 5.0) | Compound
2.58 | – | Cc1ccc2nc3[nH]c4ccc(C)cc4c3c(C)c2c1
2.58 | – | Cc1c2c3ccccc3nc-2n(C)c2ccccc12
2.92 | – | Cc1cccc2c(C)c3c(nc12)[nH]c1ccccc13
2.44 | – | c1ccc2nc3[nH]c4ccccc4c3cc2c1
2.42 | – | Cc1ccc2nc3n(C)c4ccc(C)cc4c(C)c-3c2c1
3.04 | – | Cn1c2nc3ccccc3c-2cc2ccccc21
2.46 | – | Cc1c2c3ccccc3nc-2n(C)c2c(C)cccc12
2.69 | – | Cc1c2ccccc2nc2[nH]c3ccccc3c12
– | 2.04 | Cc1ccc2c(c1)c(C)c1c3ccccc3nc-1n2C
